Assay results reported in patent publication US7053052B2, “Therapies involving mutated heat shock transcription factor” (priority 1997, dated 2006).
Entries after “also recorded” stand apart in the source; their conditions may differ.

What was measured:
[1] = tested on: human hsp70B promoter-driven chloramphenicol acetyltransferase (CAT) gene; assay: hsp70B-CAT reporter gene assay in HeLa-CAT cells; format: cell-based
Description: CAT assays were performed using the chromatographic assay of Gorman, C. M. et al., Mol. Cell. Biol., 2:1044–1051 (1982)). DNA replication was assessed by a standard ^3H-thymidine incorporation assay. In most experiments, including all western blot assays, standardization was based on protein content. All protein determinations were made using the Bradford method. In a few experiments involving sorted cells, standardization was based on cell numbers. All experiments were repeated at least twice, and, in most cases, each data point was derived from assays of 3–5 parallel samples.
To find out whether HSF1(−) could function as a negatively acting factor, HeLa-CAT cells containing integrated copies of an hsp70B-chloramphenicol acetyltransferase (CAT) gene were co-transfected with an HSF1(−) and an EFGP-expressing construct. […] To determine whether elevated Hsp levels induced by heat preconditioning are required for development of tolerance measured as an increased rate of recovery from heat-induced translational arrest, cultures co-transfected with EGFP- and HSF1(−)-expressing constructs or transfected with EGFP-expressing construct only (control cultures) were mildly heat-preconditioned (41° C./1 hour) and, 3 hours later, subjected to a 44° C./30 minutes (severe) heat shock. […] Rates of protein synthesis were assessed by pulse-labeling cells with ^3H-leucine. […]

[2] = tested on: endogenous hsp genes in HeLa-CAT cells; assay: Expression of endogenous hsps (anti-hsp western blot, 3H-leucine labeling/fluorography); format: cell-based, human
Description: Cells were scraped of dishes and lysed in buffer C. Aliquots containing equal amounts of cell protein as well as prestained molecular weight markers were applied to 8.5% SDS-PAGE gels. Following electrophoresis, proteins were transferred to Immobilon-P Transfer Membranes (Millipore Corp., Bedford, Mass.), and membranes were blocked by incubation with TBS (25 mM Tris-HCl, pH 8.0, 0.136 M NaCl, 2.7 mM KCl) with 2% nonfat dry milk. Appropriate sections of membranes were incubated with anti-HSF1 polyclonal antibody (Baler, R. et al., Mol. Cell. Biol., 13:2486–2496 (1993)), anti-Hsp antibodies (all from StressGen Biotechnologies Corp., Victoria, B C) or anti-actin antibody (Amersham, Arlington Heights, Ill.). Following three washes with TBS, membranes were reblocked and incubated with second antibody (horseradish peroxidase-conjugated anti-mouse or anti-rabbit IgG (Amersham). After several washes in TBS, membranes were developed using the ECL Western Blot Detection Kit (Amersham).
To avoid the apparent problem with low transfection efficiency altogether, the transfection approach was substituted by an infection approach. The mutHSF cDNA (HSF1(+)) was inserted behind a cytomegalovirus promoter flanked by adenoviral sequences in plasmid vector AC CMV pLpA SR (+). Human 293 cells expressing the adenovirus E1A region genes were co-transfected with plasmid vector lacking an inserted foreign gene or plasmid vector containing mutHSF and plasmid JM17 containing the bulk of adenovirus sequences. By recombination of sequences on the two types of plasmids, adenoviral genomes were created that lacked the EIA region (replication-defective) but contained a cytomegalovirus promoter (control virus) or a cytomegalovirus promoter linked to the mutHSF gene and that were packaged into defective virus particles (mutHSF virus)(See Graham and Prevec, 1991, for a description of the methodology used to create the adenovirus vehicles). Viral plaques were isolated and expanded, and the viral genomes were analyzed by restriction enzyme digestion. Infections with viruses were performed at a multiplicity of infection (MOI) of about 5. Three groups of 50% confluent cultures of HeLa-CAT cells were set up. The first group was infected with mutHSF virus (Ade-HSF1(+)), the second group with control virus (Ade), and the third group received no virus. The three groups of cultures were then incubated for 15, 24 and 36 hours, respectively, and were subsequently harvested. Extracts were prepared as before.
Even synthesis of the typically less inducible hsps such as hsp73 (also known as hsc70) and hsp60 was enhanced. […] The hsp90 antibody used may have detected both the inducible and constitutive forms of hsp90, masking a more dramatic induction of the inducible form. […]

[3] = 15, 24, 36 hours after infection

Row | Substance | activation of hsp70B-CAT genes in the absence of stress ([1]; no heat shock, listed as mutHSF) | Hsp90 levels (western blot) [2, 3] | expression of hsp72 and hsp27 (western blot) [2, 3] | synthesis of hsp73 and hsp60 (western blot) [2, 3] | heat-induced hsp70B-CAT reporter expression ([1]; 41° C./1 hour heat shock, FACS-isolated cells) | heat-induced Hsp accumulation (anti-Hsp72 western blot) ([2]; 41° C./1 hour heat shock)
1 | human HSF1d202–316 [HSF1(+)] | equally as well as or better than endogenous HSF1 activated by a moderately severe heat shock; also recorded: strongly activated | clearly increased | drastically increased | enhanced | – | –
2 | human HSF1d453–523 [HSF1(−)] | – | – | – | – | severely inhibited | greatly reduced
